For one experiment, the system named is ATF4. Put plainly: Immunoblotting/qRT-PCR of ATF4 induction (GCN2-ATF4 axis) after ASNS knockdown. Type of experiment: cell-based, human. The conditions noted are these: for ATF4 induction following ASNS knockdown (immunoblot): melanoma cells, 72 hr, ISRIB 200 nM, eFT508 100 nM, sunitinib 500 nM. As to the method:
(§1) Immunoblotting: Total protein was extracted in Laemmli buffer, fractionated by SDS polyacrylamide gels and transferred to PVDF membranes (Millipore Sigma, MA, USA). After blocking with 5% non-fat dry milk (BD Biosciences, CA, USA), the membranes were incubated with primary antibodies overnight at 4° C. Afterwards, 2 hr incubation with HRP-conjugated secondary antibodies was performed. Following chemiluminescence reaction, the protein signal was visualized using the ChemiDoc imaging system (Bio-Rad, Hercules, CA) according to the manufacturer's instructions.
qPCR Analysis: 1×10^5 cells were seeded O/N per well in 6-well plates. Following treatment for 48 hr, total RNA was extracted using RNeasy Mini Kit (Qiagen, Hilden, Germany). cDNA was synthesized using oligo(dT) and random primers (AB Bioscience, MA, USA), and qPCR analysis was performed with SYBR Green (Roche, NJ, USA). Primers were designed using the PrimerQuest tool (Integrated DNA Technologies, CA, USA) and Primer Bank Actin was used as an internal control.

Experiment [1] relates to A375 and UACC-903 melanoma cells. Put plainly: Cell proliferation (cell count) of melanoma lines. It counts as cell-based, human. The following applies: PLX-4032 250 nM; for cell proliferation in combination with ASNS knockdown (si-ASNS): melanoma cells, ISRIB 200 nM. The procedure:
siRNA Transfection: 1×10^5 cells were seeded overnight (O/N) per well in 6-well plates. Negative control (NT-siRNA) or si-RNA targeting the transcript of interest was transfected utilizing jetPRIME® transfection reagent, as per manufacturer's instructions (Polyplus, NY, USA). Following siRNAs were used: si-ASNS #1 (SASI_Hs02_00332309), si-ASNS #2 (SASI_Hs01_00116721), si-ASNS #3 (SASI_Hs01_00116722), si-ATF4 (SASI_Hs02_00332313), si-eIF4E (SASI_Hs01_00216117), si-BRAF (SASI_Hs01_00107705), si-GCN2 (SASI_Hs01_00097888), si-MNK #1 (SASI_Hs01_00228422), si-MNK1 #2 (SASI_Hs01_00228423), si-MNK1 #3 (SASI_Hs01_00228424), and the negative control si-RNA (NT-siRNA; SIC001) were purchased from Sigma-Aldrich.
Cell Proliferation: For cell proliferation, 0.3-0.5×10^5 cells were seeded O/N in triplicate in 6-well plate. Following treatment for the specified duration, cells were trypsinized and the cell count was determined with Neubauer hemocytometer (Celeromics, Cambridge, UK).

Another experiment has as its system ATF4 mRNA in A375 cells. The experiment in a line: Polysome profiling of ATF4 mRNA translation. Type of experiment: cell-based, human. The following applies: si-ASNS plus PLX-4032 500 nM, 48 hr. The procedure: Polysome Profiling: Polysome profiling was performed as described previously (Gandin et al., 2014). A375 cells were seeded at 30% confluency in a 15-cm Petri dish and transfected with NT-siRNA, si-ASNS, si-MNK1 (#1), or si-ASNS+si-MNK1 for 16 hr, using JetPrime transfection reagent (Polyplus) as per manufacturer's instruction. Post-transfection, cells were replenished with fresh media containing vehicle (DMSO) or 500 nM PLX-4032 (Selleckchem) for 48 hr treatment. […] Optical density values at 260 nm (OD260) were measured in each lysate and OD260 of ˜5 were then loaded in 5-50% sucrose gradients generated using Gradient Master (Biocomp, Fredericton, NB). […] Sucrose gradients were subjected to ultracentrifugation (SW41 Ti 11E1698 rotor; Beckman 39,000 RPM for 2 hr at 4° C.) and fractionated by displacement using 60% sucrose/0.01% bromophenol blue, on ISCO Foxy fraction collector (35 sec for each fraction ˜750 μL per fraction) equipped with an ultraviolet lamp for continuous absorbance monitoring at 254 nm. […] Relative change in the transcript levels in different pools was determined by the 2-ΔΔCT method, and shown as fold-change relative to mock-treated cells. β-Actin was used as an internal control.

Experiment [2] relates to MaNRAS1 (1007) mouse melanoma cells. Put plainly: Subcutaneous MaNRAS1 (1007) NRAS mutant melanoma model. The following applies: L-A′ase and PD-325901 dosed as in pancreatic study. Type of experiment: in vivo, C57BL/6 mice. As to the method:
(§2) In Vivo Studies: All animal studies were conducted in the SBP Medical Discovery Institute Animal Facility in accordance with the Institutional Animal Care and Use Committee guidelines. 8-week-old males C57BL/6 mice were purchased from Jackson laboratories (Bar Harbor, ME) and allowed to acclimatize for 1 week. KRAS^LSLG12D/+. p53^R172H/+; PDX^Cretg/+ (KPC/B6) pancreatic cancer cells (1×10^6, suspended in 30 μl sterile PBS) were orthotopically injected into head of the pancreas. After one week, mice were randomized and sorted into treatment groups (n=8 animal/group). L-A′ase (60 IU/animal) was administered daily for five times a week for 3 weeks intraperitoneally. MEK inhibitor PD-325901 (4 mg/kg) in 0.5% (w/v) hydroxy-propyl-methylcellulose, 0.2% (v/v) Tween 80 (Sigma) was administered by oral gavage twice a week for 3 weeks. For in vivo melanoma study, 8-week-old male C57BL/6 mice were injected subcutaneously in the flank with 2×10^5 MaNRAS1 (1007) cells. When tumors reached ˜250 mm^3, mice were randomized and sorted into treatment groups (n=8 animal/group).
(§3) Mice were maintained in a pathogen-free environment with free access to food. Tumor volume was measured blinded twice a week. Tumor volume was measured with linear calipers and calculated using the formula: ([length in millimeters x (width in millimeters)2]/2). […]

Experiment [3] deals with KRASLSLG12D/+; p53R172H/+; PDXCretg/+ (KPC/B6) pancreatic tumors. It counts as in vivo. The conditions noted are these: same regimen. The procedure: as §2, §3
The next experiment concerns ERK1/2. Put plainly: Immunoblotting of phosphorylated MEK1/2 and ERK1/2 (MAPK signaling). The following applies: melanoma cells, 72 hr; gefitinib 1 μM, sunitinib 500 nM. It counts as cell-based, human. As to the method: as §1
A general note: Immunoblotting shows a protein as a band on a membrane.

Turning to `O=C(COc1ccc(Cl)cc1)NC1CCC(NC(=O)COc2ccc(Cl)cc2)CC1` (stereo not shown) [ISRIB], the “ATF4 induction following ASNS knockdown (immunoblot)” value in the experiment on ATF4 is “suppression of ATF4 induction”. Also, the “cell proliferation in combination with ASNS knockdown (si-ASNS)” value in experiment [1] is “potentiated anti-proliferative effects of ASNS depletion in melanoma cells”.

For `Cc1cc(Nc2cc(N)ncn2)c(=O)n2c1C(=O)NC21CCCCC1` [eFT508], in the experiment with ATF4, the “ATF4 induction following ASNS knockdown (immunoblot)” value is listed as “did not antagonize ATF4 induction in response to ASNS suppression”.

As to `CCCS(=O)(=O)Nc1ccc(F)c(C(=O)c2c[nH]c3ncc(-c4ccc(Cl)cc4)cc23)c1F` [PLX-4032], in the experiment on ATF4 mRNA in A375 cells, the “translational efficiency of ATF4 mRNA (polysome distribution)” value is reported as “attenuated increase in translational efficiency of ATF4 mRNA caused by ASNS depletion”. The “melanoma cell proliferation, drug alone” value in experiment [1] (BRAF mutant melanoma lines) is recorded as “attenuated melanoma cell proliferation”. Further, the “cell proliferation in combination with ASNS knockdown (si-ASNS)” value in experiment [1] was “a more effective inhibition was seen upon its combination with ASNS knockdown”. Turning to `O=C(NOC[C@H](O)CO)c1ccc(F)c(F)c1Nc1ccc(I)cc1F` [PD-325901], in experiment [2], the “tumor growth (volume)” value is reported as “only modest anti-tumor activity”. Moreover, in experiment [3], the “apoptosis (cleaved caspase-3)” value is reported as “did not result in a significant increase in apoptosis”. Regarding `CCC(=O)N1CCN(c2ccc(-n3c(=O)ccc4cnc5ccc(-c6cnc7ccccc7c6)cc5c43)cc2C(F)(F)F)CC1` [torin 1], the “ATF4 induction and upregulation of ATF4 targets following ASNS knockdown” value in the experiment with ATF4 (melanoma and pancreatic cancer cell lines, rapamycin 100 nM, Torin 1 100 nM) is “blocked both ATF4 induction and upregulation of ATF4 targets seen following ASNS knockdown”. Take `COc1cc2ncnc(Nc3ccc(F)c(Cl)c3)c2cc1OCCCN1CCOCC1` [gefitinib]: in the experiment on ERK1/2, the “MEK1/2 and ERK1/2 phosphorylation under ASNS knockdown” value is recorded as “did not alter ERK1/2 activation under ASNS knockdown conditions”.
